# Source: publication PMC7845594, “Novel Immune Modulators Enhance Caenorhabditis elegans Resistance to Multiple Pathogens” (mSphere, 2021)
# Assays:
# C. elegans transcriptome = assay: Transcriptome profiling (Affymetrix microarrays), differentially expressed genes; type: in vivo, Caenorhabditis elegans
# Description: To gain additional insight into the effect of LK molecules on C. elegans, young-adult, wild-type worms were treated with each drug at 100 µM for 8 h in the absence of pathogen. RNA was collected, and transcriptome profiling was performed.
# Data were determined using Affymetrix microarrays, as described in Materials and Methods. Download Table S3, XLSX file, 0.07 MB.
# Transcriptome profiling was performed on ∼6,000 wild-type, young adult worms incubated with either LK molecules or DMSO for 8 h. RNA isolation was performed using TRIzol extraction, followed by cleanup using RNeasy columns according to the manufacturer’s protocol. Each condition was analyzed in triplicate. Microarray data have been deposited in the GEO database, accession number GSE137516. […] Clustering and generation of the heat map was performed using Cluster 3.0 ([98]) and Treeview ([99]), respectively. Fold change of genes were normalized to average fold change of that gene over all clustered conditions. Genes and conditions were clustered using Euclidean distance and average linkages. […] Microarray data for non-LK molecules were collected from GEO omnibus. WormEXP was used as a secondary method for confirming statistical significance of potential pathways stimulated by each of the LK molecules ([100]). Gene ontologies were generated using DAVID ([101], [102]).
# [1] = system: P. aeruginosa strain PA14; assay: MIC assay (bacterial growth, no worms); type: cell-based, Pseudomonas aeruginosa
# Description: For the first round of characterization, 69 novel small molecules previously selected on the basis of their ability to improve C. elegans survival during exposure to P. aeruginosa in liquid ([14]) were tested for the ability to interfere with bacterial growth. MICs were determined for each compound by growing P. aeruginosa strain PA14 in static culture in 384-well plates with serial 2-fold dilutions of compounds. No worms were used in these assays. Next, effective rescue concentrations (EC; defined as the minimum concentration that results in statistically significant survival, compared to dimethyl sulfoxide [DMSO]) ([15], [18]) were determined for each compound using the standard P. aeruginosa liquid killing assay. Sterile glp-4(bn2) worms were used in all liquid-based assays to limit artifacts (i.e., unlaid eggs will hatch and cause matricide).
# Plates were allowed to grow for 24 h at 37°C without shaking. Growth was scored visually on the basis of turbidity. At least three biological replicates were performed.
compound,measurement,setting,value
CNC(=O)Oc1c(Br)cc2sc(=O)oc2c1Br [LK34],Fold Change,"C. elegans transcriptome; upregulated gene W05H9.1, Affy_ID 179806_at",2.462
same,Fold Change,"C. elegans transcriptome; upregulated gene W06D4.1, Affy_ID 172046_x_at",3.704
same,Fold Change,"C. elegans transcriptome; upregulated gene W06D12.3, Affy_ID 192357_at",7.111
same,Fold Change,"C. elegans transcriptome; upregulated gene W06H8.1, Affy_ID 185746_s_at",2.211
same,Fold Change,"C. elegans transcriptome; upregulated gene W09C3.1, Affy_ID 192187_s_at",2.464
same,Fold Change,"C. elegans transcriptome; upregulated gene W09D10.2, Affy_ID 188190_at",2.479
same,Fold Change,"C. elegans transcriptome; upregulated gene Y17G7B.5, Affy_ID 191321_s_at",2.063
same,Fold Change,"C. elegans transcriptome; upregulated gene Y19D10A.9, Affy_ID 180592_s_at",3.023
same,Fold Change,"C. elegans transcriptome; upregulated gene Y22F5A.4, Affy_ID 182989_at",2.493
same,Fold Change,"C. elegans transcriptome; upregulated gene Y22F5A.5, Affy_ID 183028_s_at",6.999
same,Fold Change,"C. elegans transcriptome; upregulated gene Y25C1A.13, Affy_ID 192131_s_at",2.041
same,Fold Change,"C. elegans transcriptome; upregulated gene Y37A1B.5, Affy_ID 182849_at",3.394
same,Fold Change,"C. elegans transcriptome; upregulated gene Y37D8A.3, Affy_ID 182387_at",3.237
same,Fold Change,"C. elegans transcriptome; upregulated gene Y37D8A.6, Affy_ID 181665_at",3.132
same,Fold Change,"C. elegans transcriptome; upregulated gene Y37E3.16, Affy_ID 173045_at",3.373
same,Fold Change,"C. elegans transcriptome; upregulated gene Y38E10A.14, Affy_ID 175449_s_at",19.1307
same,Fold Change,"C. elegans transcriptome; upregulated gene Y38F1A.9, Affy_ID 183759_at",3.202
same,Fold Change,"C. elegans transcriptome; upregulated gene Y39G10AR.10, Affy_ID 176486_at",3.752
same,Fold Change,"C. elegans transcriptome; upregulated gene Y40B10A.6, Affy_ID 176851_at",72.4303
same,Fold Change,"C. elegans transcriptome; upregulated gene Y41C4A.16, Affy_ID 194230_x_at",2.854
same,Fold Change,"C. elegans transcriptome; upregulated gene Y41D4B.10, Affy_ID 176055_at",12.5937
same,Fold Change,"C. elegans transcriptome; upregulated gene Y41D4B.16, Affy_ID 176044_at",3.687
same,Fold Change,"C. elegans transcriptome; upregulated gene Y42G9A.3, Affy_ID 184843_at",2.448
same,Fold Change,"C. elegans transcriptome; upregulated gene Y45F3A.3, Affy_ID 190484_at",2.142
same,Fold Change,"C. elegans transcriptome; upregulated gene Y45F10C.4, Affy_ID 186062_at",3.365
same,Fold Change,"C. elegans transcriptome; upregulated gene Y45G12C.2, Affy_ID 187084_at",44.4121
same,Fold Change,"C. elegans transcriptome; upregulated gene Y47D3B.10, Affy_ID 175803_at",16.792
same,Fold Change,"C. elegans transcriptome; upregulated gene Y47H9C.5, Affy_ID 191065_s_at",3.655
same,Fold Change,"C. elegans transcriptome; upregulated gene Y51H7C.1, Affy_ID 186349_at",10.7753
same,Fold Change,"C. elegans transcriptome; upregulated gene Y53C10A.5, Affy_ID 185387_s_at",2.3
same,Fold Change,"C. elegans transcriptome; upregulated gene Y53F4B.33, Affy_ID 191337_at",3.746
same,Fold Change,"C. elegans transcriptome; upregulated gene Y53G8B.2, Affy_ID 184714_s_at",12.3167
same,Fold Change,"C. elegans transcriptome; upregulated gene Y55B1AR.1, Affy_ID 187047_at",6.102
same,Fold Change,"C. elegans transcriptome; upregulated gene Y57A10A.23, Affy_ID 187073_at",4.099
same,Fold Change,"C. elegans transcriptome; upregulated gene Y57G7A.1, Affy_ID 184451_at",2.494
same,Fold Change,"C. elegans transcriptome; upregulated gene Y66D12A.24, Affy_ID 175124_at",2.157
same,Fold Change,"C. elegans transcriptome; upregulated gene Y73F4A.1, Affy_ID 183741_s_at",2.361
same,Fold Change,"C. elegans transcriptome; upregulated gene Y77E11A.2, Affy_ID 187013_at",2.74
same,Fold Change,"C. elegans transcriptome; upregulated gene Y105C5B.15, Affy_ID 186799_at",3.153
same,Fold Change,"C. elegans transcriptome; upregulated gene Y105C5B.9, Affy_ID 185162_at",4.733
same,Fold Change,"C. elegans transcriptome; upregulated gene Y106G6D.6, Affy_ID 185498_at",6.605
same,Fold Change,"C. elegans transcriptome; upregulated gene Y110A2AL.4, Affy_ID 175367_s_at",14.9078
same,Fold Change,"C. elegans transcriptome; upregulated gene ZC64.2, Affy_ID 177670_at",2.001
same,Fold Change,"C. elegans transcriptome; upregulated gene ZC155.1, Affy_ID 173222_s_at",2.272
same,Fold Change,"C. elegans transcriptome; upregulated gene ZC455.4, Affy_ID 191057_s_at",5.011
same,Fold Change,"C. elegans transcriptome; upregulated gene ZK6.10, Affy_ID 175170_s_at",5.465
same,Fold Change,"C. elegans transcriptome; upregulated gene ZK455.1, Affy_ID 193891_at",2.692
same,Fold Change,"C. elegans transcriptome; upregulated gene ZK512.7, Affy_ID 186714_s_at",3.907
same,Fold Change,"C. elegans transcriptome; upregulated gene ZK550.6, Affy_ID 186811_s_at",2.631
same,Fold Change,"C. elegans transcriptome; upregulated gene ZK637.13, Affy_ID 173475_s_at",3.509
same,Fold Change,"C. elegans transcriptome; upregulated gene ZK688.6, Affy_ID 176040_s_at",2.439
same,Fold Change,"C. elegans transcriptome; upregulated gene ZK770.3, Affy_ID 180366_s_at",3.016
same,Fold Change,"C. elegans transcriptome; upregulated gene ZK829.9, Affy_ID 189819_s_at",5.03
same,Fold Change,"C. elegans transcriptome; upregulated gene ZK899.2, Affy_ID 178376_s_at",4.028
same,Fold Change,"C. elegans transcriptome; upregulated gene ZK1058.6, Affy_ID 188607_at",45.3463
same,Fold Change,"C. elegans transcriptome; upregulated gene ZK1251.2, Affy_ID 188538_at",5.974
same,Fold Change,"C. elegans transcriptome; upregulated gene ZK1290.8, Affy_ID 184676_s_at",4.32
same,MIC,"[1]; Pseudomonas aeruginosa, PA14",> 522 µM
same,MIC / EC,"[1]; ratio of MIC to EC, P. aeruginosa PA14",> 56.1
